Results from patent publication US10710978B2, “STK4 inhibitors for treatment of hematologic malignancies” (Dana-Farber Cancer Institute, Inc., priority 2015, dated 2020).
Where two headings read alike, the source gives them in different places.

Tests used:
Test in all cases: KiNativ assay
Type in all cases: binding
Conditions in all cases: H929 live cell
[1] = molecular target: STLK3 (Homo sapiens (Human), UniProt Q9UEW8)
Procedure: (§1) Biochemical IC50s of the compounds of the present disclosure against various kinases were measured in a KiNativ assay. Compounds were screened in duplicate at 10 μM in H929 live cell. IC50 was measured via Mass spectroscopy (MS).

[2] = molecular target: PKN1 (Homo sapiens (Human), UniProt Q16512)
Procedure: as §1

[3] = molecular target: MAP2K3 (Homo sapiens (Human), UniProt P46734)
Procedure: as §1

[4] = test system: ZC1/HGK, ZC2/TNIK, ZC3/MINK
Procedure: as §1

[5] = molecular target: MARK2 (Homo sapiens (Human), UniProt Q7KZI7)
Procedure: as §1

[6] = test system: MST1, MST2
Procedure: as §1

[7] = molecular target: RSK1 domain2 (Homo sapiens (Human), UniProt Q15418)
Procedure: as §1

[8] = molecular target: SRPK1 (Homo sapiens (Human), UniProt Q96SB4)
Procedure: as §1

[9] = molecular target: CDK7 (Homo sapiens (Human), UniProt P50613)
Procedure: as §1

[10] = molecular target: ILK (Homo sapiens (Human), UniProt Q13418)
Procedure: as §1

[11] = molecular target: MST1 (Homo sapiens (Human), UniProt Q13043)
Procedure: as §1

[12] = molecular target: PAN3 (Homo sapiens (Human), UniProt Q58A45)
Procedure: as §1

[13] = test system: MST4, YSK1
Procedure: as §1

[14] = test system: CDK11, CDK8
Procedure: as §1

[15] = molecular target: PKD3 (Homo sapiens (Human), UniProt O94806)
Procedure: as §1

[16] = molecular target: RSK2 domain2 (Homo sapiens (Human), UniProt P51812)
Procedure: as §1

[17] = molecular target: LOK (Homo sapiens (Human), UniProt O94804)
Procedure: as §1

[18] = molecular target: CDK2 (Homo sapiens (Human), UniProt P24941)
Procedure: as §1

[19] = test system: MST4
Procedure: as §1

[20] = molecular target: LKB1 (Homo sapiens (Human), UniProt Q15831)
Procedure: as §1

[21] = molecular target: NDR1 (Homo sapiens (Human), UniProt Q15208)
Procedure: as §1

[22] = molecular target: PKCz (Homo sapiens (Human), UniProt Q05513)
Procedure: as §1

[23] = test system: PITSLRE
Procedure: as §1

[24] = molecular target: PRPK (Homo sapiens (Human), UniProt Q96S44)
Procedure: as §1

[25] = molecular target: JAK1 domain2 (Homo sapiens (Human), UniProt P23458)
Procedure: as §1

[26] = molecular target: ACK (Homo sapiens (Human), UniProt Q07912)
Procedure: as §1

[27] = molecular target: DGKH (Homo sapiens (Human), UniProt Q86XP1)
Procedure: as §1

[28] = molecular target: MAP3K5 (Homo sapiens (Human), UniProt Q99683)
Procedure: as §1

[29] = molecular target: PIP4K2C (Homo sapiens (Human), UniProt Q8TBX8)
Procedure: as §1

[30] = molecular target: CSK (Homo sapiens (Human), UniProt P41240)
Procedure: as §1

[31] = molecular target: CaMK2d (Homo sapiens (Human), UniProt Q13557)
Procedure: as §1

[32] = molecular target: eEF2K (Homo sapiens (Human), UniProt O00418)
Procedure: as §1

[33] = molecular target: MLK3 (Homo sapiens (Human), UniProt Q16584)
Procedure: as §1

[34] = molecular target: CaMK2g (Homo sapiens (Human), UniProt Q13555)
Procedure: as §1

Sequence of CaMK2d (Q13557 whole entry): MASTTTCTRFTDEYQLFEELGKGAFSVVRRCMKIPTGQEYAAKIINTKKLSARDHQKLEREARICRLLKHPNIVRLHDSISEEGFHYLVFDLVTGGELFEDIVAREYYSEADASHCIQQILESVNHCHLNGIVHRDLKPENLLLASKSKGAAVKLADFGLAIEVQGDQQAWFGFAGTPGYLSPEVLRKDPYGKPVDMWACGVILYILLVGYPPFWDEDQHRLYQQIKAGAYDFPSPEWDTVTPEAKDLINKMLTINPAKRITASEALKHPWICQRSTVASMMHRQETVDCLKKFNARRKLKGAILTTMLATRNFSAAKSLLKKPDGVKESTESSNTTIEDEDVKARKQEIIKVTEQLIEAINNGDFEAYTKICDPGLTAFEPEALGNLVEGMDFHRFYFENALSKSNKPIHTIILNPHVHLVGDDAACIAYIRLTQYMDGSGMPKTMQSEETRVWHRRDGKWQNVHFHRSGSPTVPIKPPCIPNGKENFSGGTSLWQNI
Sequence of DGKH (Q86XP1 whole entry): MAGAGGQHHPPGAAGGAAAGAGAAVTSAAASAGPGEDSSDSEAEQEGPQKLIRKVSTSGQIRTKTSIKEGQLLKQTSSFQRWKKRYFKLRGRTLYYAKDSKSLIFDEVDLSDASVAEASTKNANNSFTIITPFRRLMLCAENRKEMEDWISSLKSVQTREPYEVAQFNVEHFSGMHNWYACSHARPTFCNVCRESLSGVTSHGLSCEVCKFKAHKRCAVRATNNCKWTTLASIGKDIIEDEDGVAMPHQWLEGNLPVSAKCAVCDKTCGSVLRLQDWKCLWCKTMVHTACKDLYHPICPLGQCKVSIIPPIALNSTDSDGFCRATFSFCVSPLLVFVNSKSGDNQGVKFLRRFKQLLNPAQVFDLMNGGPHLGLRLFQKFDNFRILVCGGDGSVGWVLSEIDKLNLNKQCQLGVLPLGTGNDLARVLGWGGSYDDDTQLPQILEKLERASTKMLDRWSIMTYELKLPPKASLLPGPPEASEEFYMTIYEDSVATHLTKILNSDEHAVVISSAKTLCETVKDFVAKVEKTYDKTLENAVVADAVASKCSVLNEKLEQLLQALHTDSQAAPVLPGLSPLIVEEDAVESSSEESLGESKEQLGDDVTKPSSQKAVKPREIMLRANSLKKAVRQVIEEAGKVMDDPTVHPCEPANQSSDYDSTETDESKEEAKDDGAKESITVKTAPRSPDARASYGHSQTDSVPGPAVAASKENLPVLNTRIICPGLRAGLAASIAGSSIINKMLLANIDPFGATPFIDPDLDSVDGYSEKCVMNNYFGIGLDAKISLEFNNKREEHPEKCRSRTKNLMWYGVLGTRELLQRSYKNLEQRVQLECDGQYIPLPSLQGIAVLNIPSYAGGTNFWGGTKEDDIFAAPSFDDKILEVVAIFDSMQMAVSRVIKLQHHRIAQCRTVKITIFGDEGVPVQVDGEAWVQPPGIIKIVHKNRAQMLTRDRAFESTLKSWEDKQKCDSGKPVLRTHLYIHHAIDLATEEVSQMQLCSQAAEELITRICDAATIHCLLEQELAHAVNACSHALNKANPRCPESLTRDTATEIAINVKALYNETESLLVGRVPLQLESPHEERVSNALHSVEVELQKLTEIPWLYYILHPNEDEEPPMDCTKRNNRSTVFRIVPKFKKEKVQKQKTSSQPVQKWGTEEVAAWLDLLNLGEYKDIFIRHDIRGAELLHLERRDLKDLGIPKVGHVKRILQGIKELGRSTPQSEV
Sequence of MARK2 (Q7KZI7 whole entry): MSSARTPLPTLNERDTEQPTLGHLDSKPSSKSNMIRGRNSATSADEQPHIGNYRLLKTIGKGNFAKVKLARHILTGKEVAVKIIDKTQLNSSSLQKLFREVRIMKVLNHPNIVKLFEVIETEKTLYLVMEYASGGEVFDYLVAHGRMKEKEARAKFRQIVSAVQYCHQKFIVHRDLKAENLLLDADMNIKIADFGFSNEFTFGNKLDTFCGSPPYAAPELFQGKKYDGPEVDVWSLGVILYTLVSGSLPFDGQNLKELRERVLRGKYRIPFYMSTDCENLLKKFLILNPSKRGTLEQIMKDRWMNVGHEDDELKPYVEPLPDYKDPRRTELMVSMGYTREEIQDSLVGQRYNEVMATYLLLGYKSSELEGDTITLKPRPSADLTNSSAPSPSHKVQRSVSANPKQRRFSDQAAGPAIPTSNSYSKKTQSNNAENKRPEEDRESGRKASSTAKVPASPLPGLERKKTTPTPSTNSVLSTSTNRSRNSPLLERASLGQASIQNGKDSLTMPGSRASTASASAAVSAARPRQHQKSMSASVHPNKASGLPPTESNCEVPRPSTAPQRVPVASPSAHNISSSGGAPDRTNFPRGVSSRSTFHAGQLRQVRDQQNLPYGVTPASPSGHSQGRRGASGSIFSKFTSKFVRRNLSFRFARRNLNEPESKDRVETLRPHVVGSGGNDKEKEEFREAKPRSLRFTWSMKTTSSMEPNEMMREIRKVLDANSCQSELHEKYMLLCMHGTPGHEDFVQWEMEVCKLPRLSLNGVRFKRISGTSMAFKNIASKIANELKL
Sequence of SRPK1 (Q96SB4 whole entry): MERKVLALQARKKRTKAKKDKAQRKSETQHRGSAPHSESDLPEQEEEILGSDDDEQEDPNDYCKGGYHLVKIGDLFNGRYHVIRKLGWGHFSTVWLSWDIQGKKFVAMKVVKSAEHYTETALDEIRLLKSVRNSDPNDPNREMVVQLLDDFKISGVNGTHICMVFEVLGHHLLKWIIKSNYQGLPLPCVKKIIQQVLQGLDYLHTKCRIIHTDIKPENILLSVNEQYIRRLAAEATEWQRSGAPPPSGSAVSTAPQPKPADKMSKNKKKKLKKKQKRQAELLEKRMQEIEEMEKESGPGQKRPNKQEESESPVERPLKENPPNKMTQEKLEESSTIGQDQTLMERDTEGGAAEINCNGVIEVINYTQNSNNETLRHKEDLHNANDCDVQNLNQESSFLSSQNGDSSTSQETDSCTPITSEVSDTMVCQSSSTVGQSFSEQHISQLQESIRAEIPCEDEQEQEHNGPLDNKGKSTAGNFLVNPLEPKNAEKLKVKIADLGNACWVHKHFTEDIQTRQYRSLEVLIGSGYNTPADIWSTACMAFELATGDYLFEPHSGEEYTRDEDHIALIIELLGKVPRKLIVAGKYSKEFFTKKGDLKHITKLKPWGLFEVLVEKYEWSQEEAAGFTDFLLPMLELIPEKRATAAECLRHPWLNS
Sequence of PKCz (Q05513 whole entry): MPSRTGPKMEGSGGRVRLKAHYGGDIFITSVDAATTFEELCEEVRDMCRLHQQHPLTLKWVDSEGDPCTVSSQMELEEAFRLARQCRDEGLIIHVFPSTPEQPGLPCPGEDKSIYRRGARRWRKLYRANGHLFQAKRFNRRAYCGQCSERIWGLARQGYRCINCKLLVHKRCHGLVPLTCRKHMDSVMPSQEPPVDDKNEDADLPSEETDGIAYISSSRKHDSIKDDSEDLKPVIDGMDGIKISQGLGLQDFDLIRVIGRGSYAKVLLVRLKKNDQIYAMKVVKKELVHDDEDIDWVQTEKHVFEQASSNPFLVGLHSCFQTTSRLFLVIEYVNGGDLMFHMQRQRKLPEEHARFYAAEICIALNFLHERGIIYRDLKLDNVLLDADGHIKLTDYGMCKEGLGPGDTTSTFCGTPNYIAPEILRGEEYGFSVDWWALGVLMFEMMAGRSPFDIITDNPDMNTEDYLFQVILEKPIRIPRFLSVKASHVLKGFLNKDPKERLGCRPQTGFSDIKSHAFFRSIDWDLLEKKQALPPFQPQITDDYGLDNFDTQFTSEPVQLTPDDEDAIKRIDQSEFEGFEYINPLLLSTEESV
Sequence of RSK1 domain2 (Q15418 whole entry, the tested form may be a part): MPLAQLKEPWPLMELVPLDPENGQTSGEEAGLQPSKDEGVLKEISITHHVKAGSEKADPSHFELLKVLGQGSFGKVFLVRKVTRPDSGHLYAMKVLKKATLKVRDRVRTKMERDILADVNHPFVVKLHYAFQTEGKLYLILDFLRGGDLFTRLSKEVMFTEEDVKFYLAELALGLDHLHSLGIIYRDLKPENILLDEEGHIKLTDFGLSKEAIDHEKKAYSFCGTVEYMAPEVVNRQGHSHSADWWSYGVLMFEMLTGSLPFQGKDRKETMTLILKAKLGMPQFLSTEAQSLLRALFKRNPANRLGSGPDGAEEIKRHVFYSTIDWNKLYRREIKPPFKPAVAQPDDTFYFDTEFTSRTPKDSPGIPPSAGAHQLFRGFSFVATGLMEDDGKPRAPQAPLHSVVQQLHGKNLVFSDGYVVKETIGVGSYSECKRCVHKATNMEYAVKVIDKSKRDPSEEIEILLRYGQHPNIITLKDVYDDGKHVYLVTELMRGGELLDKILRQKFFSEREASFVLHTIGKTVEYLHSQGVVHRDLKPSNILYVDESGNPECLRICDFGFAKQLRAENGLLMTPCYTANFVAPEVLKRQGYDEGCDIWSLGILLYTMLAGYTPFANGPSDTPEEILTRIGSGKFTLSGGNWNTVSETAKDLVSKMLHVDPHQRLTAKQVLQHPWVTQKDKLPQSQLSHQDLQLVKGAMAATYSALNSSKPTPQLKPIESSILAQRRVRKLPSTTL
Sequence of ILK (Q13418 whole entry): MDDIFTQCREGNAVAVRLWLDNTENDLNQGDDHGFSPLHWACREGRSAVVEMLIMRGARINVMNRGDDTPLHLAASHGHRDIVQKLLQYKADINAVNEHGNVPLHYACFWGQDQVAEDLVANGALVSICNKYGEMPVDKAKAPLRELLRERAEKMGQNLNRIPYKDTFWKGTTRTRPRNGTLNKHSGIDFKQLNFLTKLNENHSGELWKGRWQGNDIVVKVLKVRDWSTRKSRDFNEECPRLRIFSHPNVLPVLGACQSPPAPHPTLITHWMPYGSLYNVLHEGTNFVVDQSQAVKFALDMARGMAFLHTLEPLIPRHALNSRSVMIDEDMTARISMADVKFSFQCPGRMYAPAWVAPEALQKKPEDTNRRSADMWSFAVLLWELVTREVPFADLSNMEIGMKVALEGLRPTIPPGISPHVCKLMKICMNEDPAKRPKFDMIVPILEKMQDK

In the case of CN(C1CC1)S(=O)(=O)c1ccc(-c2cnc(N)c(-c3ccc4c(c3)CCNC4=O)c2)c(F)c1 [Compound I-28, 4-(6-amino-5-(1-oxo-1,2,3,4-tetrahydroisoquinolin-6-yl)pyridin-3-yl)-N-cyclopropyl-3-fluoro-N-methylbenzenesulfonamide], the inhibition at 10 µM ([1]; read-out: % inhibition (range)) was 0%, the inhibition at 10 µM ([1]; read-out: inhibition (10 μM)) was 13.5% and the inhibition at 10 µM ([2]; read-out: % inhibition (range)) was 35 to 50%. For the same molecule, the inhibition at 10 µM ([2]; read-out: inhibition (10 μM)) was 40.5%, the inhibition at 10 µM ([3]; read-out: % inhibition (range)) was 0% and the inhibition at 10 µM ([3]; read-out: inhibition (10 μM)) was 1.4%. For the same molecule, the “% inhibition (range)” value ([4]; 10 μM) was over 90%, the “inhibition (10 μM)” value [4] was 94.5% and the inhibition at 10 µM ([5]; read-out: % inhibition (range)) was 0%. The inhibition at 10 µM ([5]; read-out: inhibition (10 μM)) was 4.6%, the “% inhibition (range)” value ([6]; 10 μM) was over 90% and the “inhibition (10 μM)” value [6] was 97.5%. The inhibition at 10 µM ([7]; read-out: % inhibition (range)) was 0%, the inhibition at 10 µM ([7]; read-out: inhibition (10 μM)) was 3.8% and the inhibition at 10 µM ([8]; read-out: % inhibition (range)) was 0%. It also gave an inhibition at 10 µM ([8]; read-out: inhibition (10 μM)) of 19.5%, an inhibition at 10 µM ([9]; read-out: % inhibition (range)) of 0% and an inhibition at 10 µM ([9]; read-out: inhibition (10 μM)) of 12.3%. The inhibition at 10 µM ([10]; read-out: % inhibition (range)) was 0%, the inhibition at 10 µM ([10]; read-out: inhibition (10 μM)) was -5.8% and the inhibition at 10 µM ([11]; read-out: % inhibition (range)) was over 90%. For the same molecule, the inhibition at 10 µM ([11]; read-out: inhibition (10 μM)) was 94.5%, the inhibition at 10 µM ([12]; read-out: % inhibition (range)) was 0% and the inhibition at 10 µM ([12]; read-out: inhibition (10 μM)) was -45.1%. For the same molecule, the “% inhibition (range)” value ([13]; 10 μM) was 75-90%, the “inhibition (10 μM)” value [13] was 76.7% and the “% inhibition (range)” value ([14]; 10 μM) was 0.0%. For the same molecule, the “inhibition (10 μM)” value [14] was 4.9%, the inhibition at 10 µM ([15]; read-out: % inhibition (range)) was 35 to 50% and the inhibition at 10 µM ([15]; read-out: inhibition (10 μM)) was 36.6%. The inhibition at 10 µM ([16]; read-out: % inhibition (range)) was 0%, the inhibition at 10 µM ([16]; read-out: inhibition (10 μM)) was -20% and the inhibition at 10 µM ([17]; read-out: % inhibition (range)) was 75 to 90%. It also gave an inhibition at 10 µM ([17]; read-out: inhibition (10 μM)) of 85.5%, an inhibition at 10 µM ([18]; read-out: % inhibition (range)) of 0% and an inhibition at 10 µM ([18]; read-out: inhibition (10 μM)) of 27.6%. The “% inhibition (range)” value ([19]; 10 μM) was 50-75%, the “inhibition (10 μM)” value [19] was 63.9% and the inhibition at 10 µM ([20]; read-out: % inhibition (range)) was 0%. It also gave an inhibition at 10 µM ([20]; read-out: inhibition (10 μM)) of -0.6%, an inhibition at 10 µM ([21]; read-out: % inhibition (range)) of 0% and an inhibition at 10 µM ([21]; read-out: inhibition (10 μM)) of 24.6%. The inhibition at 10 µM ([22]; read-out: % inhibition (range)) was 0%, the inhibition at 10 µM ([22]; read-out: inhibition (10 μM)) was 6.2% and the “% inhibition (range)” value ([23]; 10 μM) was 0.0%. The “inhibition (10 μM)” value [23] was −6.3%, the inhibition at 10 µM ([24]; read-out: % inhibition (range)) was 0% and the inhibition at 10 µM ([24]; read-out: inhibition (10 μM)) was 10.1%. It also gave an inhibition at 10 µM ([25]; read-out: % inhibition (range)) of 0%, an inhibition at 10 µM ([25]; read-out: inhibition (10 μM)) of -33.7% and an inhibition at 10 µM ([26]; read-out: % inhibition (range)) of 0%. For the same molecule, the inhibition at 10 µM ([26]; read-out: inhibition (10 μM)) was -18.8%, the inhibition at 10 µM ([27]; read-out: % inhibition (range)) was 0% and the inhibition at 10 µM ([27]; read-out: inhibition (10 μM)) was 10.9%. For the same molecule, the inhibition at 10 µM ([28]; read-out: % inhibition (range)) was 0%, the inhibition at 10 µM ([28]; read-out: inhibition (10 μM)) was -6.2% and the inhibition at 10 µM ([29]; read-out: % inhibition (range)) was 0%. For the same molecule, the inhibition at 10 µM ([29]; read-out: inhibition (10 μM)) was 11.8%, the inhibition at 10 µM ([30]; read-out: % inhibition (range)) was 0% and the inhibition at 10 µM ([30]; read-out: inhibition (10 μM)) was 3.7%. It also gave an inhibition at 10 µM ([31]; read-out: % inhibition (range)) of 0%, an inhibition at 10 µM ([31]; read-out: inhibition (10 μM)) of -31% and an inhibition at 10 µM ([32]; read-out: % inhibition (range)) of 0%. For the same molecule, the inhibition at 10 µM ([32]; read-out: inhibition (10 μM)) was -15.1%, the inhibition at 10 µM ([33]; read-out: % inhibition (range)) was 0% and the inhibition at 10 µM ([33]; read-out: inhibition (10 μM)) was 11.7%. For the same molecule, the inhibition at 10 µM ([34]; read-out: % inhibition (range)) was 0% and the inhibition at 10 µM ([34]; read-out: inhibition (10 μM)) was -13%.
